In the NIST ThermoML archive (doi:10.1021/acs.jced.5b00662):

Assay: xn = mol fraction of the nth substance listed
Settings: 100 kPa, Liquid; for speed of sound: Sing-around technique in a fixed-path interferometer; for mass density: Vibrating tube method

CCOCCOCCO [3,6-dioxa-1-octanol] + O
Settings | mass density, x1 = 0.9674 [kg/m3] | mass density, x1 = 0.974 [kg/m3] | mass density, x1 = 0.9826 [kg/m3] | mass density, x1 = 0.9887 [kg/m3] | mass density, x1 = 0.9899 [kg/m3] | speed of sound, x1 = 0.9674 [m/s] | speed of sound, x1 = 0.974 [m/s] | speed of sound, x1 = 0.9826 [m/s] | speed of sound, x1 = 0.9887 [m/s] | speed of sound, x1 = 0.9899 [m/s]
283.15 K | 997.734 | 997.587 | 997.387 | 997.339 | 997.227 | 1430.8 | 1430.3 | 1429.4 | 1429.6 | 1429.6
288.15 K | 993.31 | 993.16 | 992.963 | 992.908 | 992.793 | 1412.8 | 1412.2 | 1411.4 | 1411.4 | 1411.2
293.15 K | 988.877 | 988.725 | 988.528 | 988.475 | 988.357 | 1394.9 | 1394.3 | 1393.5 | 1393.6 | 1393.3
298.15 K | 984.434 | 984.285 | 984.088 | 984.028 | 983.913 | 1377.3 | 1376.5 | 1375.7 | 1375.7 | 1375.4
303.15 K | 979.981 | 979.829 | 979.636 | 979.572 | 979.459 | 1359.6 | 1358.8 | 1358 | 1357.9 | 1357.5
308.15 K | 975.514 | 975.363 | 975.164 | 975.102 | 974.991 | 1342 | 1341.3 | 1340.5 | 1340.1 | 1340
313.15 K | 971.029 | 970.88 | 970.684 | 970.62 | 970.511 | 1324.4 | 1323.9 | 1323.1 | 1322.7 | 1322.5
323.15 K | 962.022 | 961.873 | 961.673 | 961.608 | 961.499 | 1289.8 | 1289.3 | 1288.5 | 1287.9 | 1287.8
333.15 K | 952.945 | 952.794 | 952.591 | 952.534 | 952.422 | 1255.6 | 1255 | 1254.2 | 1253.7 | 1253.5
343.15 K | 943.775 | 943.629 | 943.425 | 943.381 | 943.264 | 1221.7 | 1221.1 | 1220.3 | 1220 | 1219.7

CCOCCO [2-ethoxyethan-1-ol] + O
Settings | mass density, x1 = 0.9426 [kg/m3] | mass density, x1 = 0.949 [kg/m3] | mass density, x1 = 0.9549 [kg/m3] | mass density, x1 = 0.9567 [kg/m3] | mass density, x1 = 0.967 [kg/m3] | speed of sound, x1 = 0.9426 [m/s] | speed of sound, x1 = 0.949 [m/s] | speed of sound, x1 = 0.9549 [m/s] | speed of sound, x1 = 0.9567 [m/s] | speed of sound, x1 = 0.967 [m/s]
283.15 K | 943.675 | 943.444 | 943.15 | 943.112 | 942.599 | 1364 | 1365.8 | 1366.2 | 1366.8 | 1361.6
288.15 K | 939.208 | 938.975 | 938.68 | 938.638 | 938.12 | 1346.2 | 1347.5 | 1347.9 | 1348.4 | 1343.5
293.15 K | 934.713 | 934.479 | 934.183 | 934.14 | 933.622 | 1328.3 | 1329.2 | 1329.6 | 1330.2 | 1325.6
298.15 K | 930.19 | 929.953 | 929.657 | 929.614 | 929.099 | 1310.5 | 1311.1 | 1311.3 | 1311.8 | 1307.8
303.15 K | 925.638 | 925.399 | 925.102 | 925.055 | 924.54 | 1292.8 | 1293 | 1293.2 | 1292.6 | 1289.8
308.15 K | 921.054 | 920.815 | 920.517 | 920.467 | 919.951 | 1275 | 1275.3 | 1275.2 | 1274.3 | 1272
313.15 K | 916.435 | 916.194 | 915.892 | 915.843 | 915.328 | 1257.4 | 1257.6 | 1256.6 | 1256.1 | 1254.3
323.15 K | 907.087 | 906.839 | 906.54 | 906.493 | 905.969 | 1222.2 | 1222.2 | 1220.3 | 1220.2 | 1218.9
333.15 K | 897.58 | 897.329 | 897.036 | 896.985 | 896.461 | 1187.1 | 1186.9 | 1185.1 | 1184.9 | 1183.7
343.15 K | 887.911 | 887.628 | 887.337 | 887.297 | 886.774 | 1152 | 1151.1 | 1150.1 | 1149.8 | 1148.6

COCCOCCO [2-(2-methoxyethoxy)ethanol] + O
Settings | mass density [kg/m3] | speed of sound [m/s]
283.15 K, x1 = 0.9373 | – | 1473.4
283.15 K, x1 = 0.9483 | 1029.62 | 1472.6
283.15 K, x1 = 0.9601 | 1029.5 | 1471.2
283.15 K, x1 = 0.9674 | 1029.29 | 1470.8
283.15 K, x1 = 0.9893 | 1028.84 | 1468.4
283.15 K, x1 = 0.9932 | 1028.73 | 1468.6
288.15 K, x1 = 0.9373 | – | 1455.8
288.15 K, x1 = 0.9483 | 1025.24 | 1455.1
288.15 K, x1 = 0.9601 | 1025.13 | 1453.9
288.15 K, x1 = 0.9674 | 1024.9 | 1453.3
288.15 K, x1 = 0.9893 | 1024.45 | 1451
288.15 K, x1 = 0.9932 | 1024.35 | 1451
293.15 K, x1 = 0.9373 | – | 1438.7
293.15 K, x1 = 0.9483 | 1020.87 | 1438
293.15 K, x1 = 0.9601 | 1020.74 | 1436.7
293.15 K, x1 = 0.9674 | 1020.52 | 1436.1
293.15 K, x1 = 0.9893 | 1020.06 | 1433.7
293.15 K, x1 = 0.9932 | 1019.95 | 1433.4
298.15 K, x1 = 0.9373 | – | 1421.6
298.15 K, x1 = 0.9483 | 1016.47 | 1420.8
298.15 K, x1 = 0.9601 | 1016.34 | 1419.5
298.15 K, x1 = 0.9674 | 1016.12 | 1418.9
298.15 K, x1 = 0.9893 | 1015.65 | 1416.4
298.15 K, x1 = 0.9932 | 1015.55 | 1416.1
303.15 K, x1 = 0.9373 | – | 1404.5
303.15 K, x1 = 0.9483 | 1012.06 | 1403.6
303.15 K, x1 = 0.9601 | 1011.93 | 1402.3
303.15 K, x1 = 0.9674 | 1011.71 | 1401.7
303.15 K, x1 = 0.9893 | 1011.24 | 1399.1
303.15 K, x1 = 0.9932 | 1011.12 | 1398.9
308.15 K, x1 = 0.9373 | – | 1387.3
308.15 K, x1 = 0.9483 | 1007.63 | 1386.5
308.15 K, x1 = 0.9601 | 1007.5 | 1385.1
308.15 K, x1 = 0.9674 | 1007.28 | 1384.5
308.15 K, x1 = 0.9893 | 1006.8 | 1381.9
308.15 K, x1 = 0.9932 | 1006.69 | 1381.6
313.15 K, x1 = 0.9373 | – | 1370.3
313.15 K, x1 = 0.9483 | 1003.19 | 1369.4
313.15 K, x1 = 0.9601 | 1003.06 | 1368.1
313.15 K, x1 = 0.9674 | 1002.83 | 1367.5
313.15 K, x1 = 0.9893 | 1002.35 | 1364.9
313.15 K, x1 = 0.9932 | 1002.24 | 1364.6
323.15 K, x1 = 0.9373 | – | 1336.5
323.15 K, x1 = 0.9483 | 994.251 | 1335.6
323.15 K, x1 = 0.9601 | 994.119 | 1334.3
323.15 K, x1 = 0.9674 | 993.893 | 1333.7
323.15 K, x1 = 0.9893 | 993.397 | 1330.9
323.15 K, x1 = 0.9932 | 993.288 | 1330.3
333.15 K, x1 = 0.9373 | – | 1302.9
333.15 K, x1 = 0.9483 | 985.224 | 1302.1
333.15 K, x1 = 0.9601 | 985.089 | 1300.7
333.15 K, x1 = 0.9674 | 984.87 | 1300.2
333.15 K, x1 = 0.9893 | 984.365 | 1297.3
333.15 K, x1 = 0.9932 | 984.259 | 1296.7
343.15 K, x1 = 0.9373 | – | 1269.6
343.15 K, x1 = 0.9483 | 976.029 | 1268.8
343.15 K, x1 = 0.9601 | 975.972 | 1267.4
343.15 K, x1 = 0.9674 | 975.754 | 1266.9
343.15 K, x1 = 0.9893 | 975.241 | 1263.9
343.15 K, x1 = 0.9932 | 975.146 | 1263.3
